For 18 compounds, IC90 results are on record in US12421211B2, “Heterocyclic compounds” (Hoffmann-La Roche Inc., priority 2021, dated 2025).

Where a name gives a salt, the structure may show the parent alone.

The test system of one test is Acinetobacter baumannii ATCC17961. The test can be described thus: Antimicrobial susceptibility testing: 90% growth inhibitory concentration (IC90) determination. As to conditions: Acinetobacter baumannii, ATCC17961, 16 h, 90% growth inhibitory concentration, Acinetobacter baumannii ATCC17961, Iso-Sensitest broth, OD 600 nm over 16 h; read-out: ATCC 17961 IC90. The test is classed as cell-based. In a few lines: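 Growth inhibition derived in log phase from OD600 kinetics (every 20 minutes, 16h, 35±2° C) of ATCC17961 in Iso-Sensitest medium, inoculum ~5×10^5 CFU/ml. Compounds tested as twofold series, 10 points (e.g. 50 to 0.097 μM final); IC90 and IC50 reported.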
As usually defined, the IC90 is the point of the concentration-response curve where the effect stands at 90%. As for `COCCn1ncc(-c2ccc(-c3cnc(C(=O)Nc4ccc(C(=O)N5CCN(C(=O)[C@@H]6C[C@@H](O)C[N+]6(C)C)CC5)c(C)c4)n3C)c(F)c2F)c1C` [Example F14, 5-[2,3-difluoro-4-[1-(2-methoxyethyl)-5-methyl-pyrazol-4-yl]phenyl]-N-[4-[4-[(2S,4R)-4-hydroxy-1,1-dimethyl-pyrrolidin-1-ium-2-carbonyl]piperazine-1-carbonyl]-3-methyl-phenyl]-1-methyl-imidazole-2-carboxamide; 2,2,2-trifluoroacetate], the IC90 worked out at 100 nM.

With `COCCn1ncc(-c2ccc(-c3cnc(C(=O)Nc4ccc(C(=O)N5CCN(C(=O)C[N+]6(C)CCC(N)C6)CC5)c(Cl)c4)n3C)c(F)c2F)c1C` (stereo not drawn) [Example C2, N-[4-[4-[2-(3-amino-1-methyl-pyrrolidin-1-ium-1-yl)acetyl]piperazine-1-carbonyl]-3-chloro-phenyl]-5-[2,3-difluoro-4-[1-(2-methoxyethyl)-5-methyl-pyrazol-4-yl]phenyl]-1-methyl-imidazole-2-carboxamide; formic acid; formate], the 90% effect concentration (IC90) was 41 nM.

In the case of `COCCn1ncc(-c2ccc(-c3cnc(C(=O)Nc4ccc(C(=O)N5CCN(C(=O)N6CC[N+](CC(=O)O)(CC7CNC7)CC6)CC5)c(Cl)c4)n3C)c(F)c2F)c1C` [Example B38, 2-[1-(azetidin-3-ylmethyl)-4-[4-[2-chloro-4-[[5-[2,3-difluoro-4-[1-(2-methoxyethyl)-5-methyl-pyrazol-4-yl]phenyl]-1-methyl-imidazole-2-carbonyl]amino]benzoyl]piperazine-1-carbonyl]piperazin-1-ium-1-yl]acetic acid; formate], the 90% effect concentration (IC90) was found to be 300 nM.

With `Cc1n[nH]cc1-c1ccc(-c2cnc(C(=O)Nc3ccc(C(=O)N4CCN(C(=O)[C@@H]5C[C@@H](O)CN5)CC4)c(Cl)c3)n2C)c(F)c1F` [Example D36, N-[3-chloro-4-[4-[(2S,4R)-4-hydroxypyrrolidine-2-carbonyl]piperazine-1-carbonyl]phenyl]-5-[2,3-difluoro-4-(3-methyl-1H-pyrazol-4-yl)phenyl]-1-methyl-imidazole-2-carboxamide], the IC90 is 88 nM.

Consider `Cc1nn(CC(=O)Nc2ccc(F)nn2)cc1-c1ccc(-c2cnc(C(=O)Nc3ccc(C(=O)N4CCN(C(=O)C5CC[N+](C)(C)CC5)CC4)c(Cl)c3)n2C)cc1` [Example L1, N-[3-chloro-4-[4-(1,1-dimethylpiperidin-1-ium-4-carbonyl)piperazine-1-carbonyl]phenyl]-5-[4-[1-[2-[(6-fluoropyridazin-3-yl)amino]-2-oxo-ethyl]-3-methyl-pyrazol-4-yl]phenyl]-1-methyl-imidazole-2-carboxamide; formate], for which the IC90 was determined as 206 nM.

Consider `Cc1ccc(NC(=O)NCCn2cc(-c3ccc(-c4cnc(C(=O)Nc5ccc(C(=O)N6CCN(C(=O)C7CC[N+](C)(C)CC7)CC6)c(Cl)c5)n4C)c(F)c3F)c(C)n2)cn1` [Example M1, N-[3-chloro-4-[4-(1,1-dimethylpiperidin-1-ium-4-carbonyl)piperazine-1-carbonyl]phenyl]-5-[2,3-difluoro-4-[3-methyl-1-[2-[(6-methyl-3-pyridyl)carbamoylamino]ethyl]pyrazol-4-yl]phenyl]-1-methyl-imidazole-2-carboxamide formate], for which the IC90 was found to be 152 nM.

For `COCCn1ncc(-c2ccc(-c3cnc(C(=O)Nc4ccc(C(=O)N5CCN(C(=O)C6CCNC(=O)C6)CC5)c(Cl)c4)n3C)c(F)c2F)c1C` (stereo not drawn) [Example D27, N-[3-chloro-4-[4-(2-oxopiperidine-4-carbonyl)piperazine-1-carbonyl]phenyl]-5-[2,3-difluoro-4-[1-(2-methoxyethyl)-5-methyl-pyrazol-4-yl]phenyl]-1-methyl-imidazole-2-carboxamide; 2,2,2-trifluoroacetic acid], the IC90 is 230 nM.

With `Cc1nn(CCNC(=O)N2CCCC2)cc1-c1ccc(-c2cnc(C(=O)Nc3ccc(C(=O)N4CCN(C(=O)C5CC[N+](C)(C)CC5)CC4)c(Cl)c3)n2C)c(F)c1F` [Example H8, N-[3-chloro-4-[4-(1,1-dimethylpiperidin-1-ium-4-carbonyl)piperazine-1-carbonyl]phenyl]-5-[2,3-difluoro-4-[3-methyl-1-[2-(pyrrolidine-1-carbonylamino)ethyl]pyrazol-4-yl]phenyl]-1-methyl-imidazole-2-carboxamide; formate], the concentration for an effect of 90% (IC90) is 540 nM.

Regarding `CC(O)Cn1cc(-c2ccc(-c3cnc(C(=O)Nc4ccc(C(=O)N5CCN(C(=O)C6CC[N+](C)(C)CC6)CC5)c(Cl)c4)n3C)c(F)c2F)c(C(F)(F)F)n1` (stereo not drawn) [Example F33, N-[3-chloro-4-[4-(1,1-dimethylpiperidin-1-ium-4-carbonyl)piperazine-1-carbonyl]phenyl]-5-[2,3-difluoro-4-[1-(2-hydroxypropyl)-3-(trifluoromethyl)pyrazol-4-yl]phenyl]-1-methyl-imidazole-2-carboxamide; formate], the concentration for an effect of 90% (IC90) was found to be 360 nM.

`COCCn1cc(-c2ccc(-c3cnc(C(=O)Nc4ccc(C(=O)N5CCC(NC(=O)[C@@H]6C[C@@H](O)CN6)CC5)c(Cl)c4)n3C)c(F)c2F)c(C)n1` [Example D23, N-[3-chloro-4-[4-[[(2S,4R)-4-hydroxypyrrolidine-2-carbonyl]amino]piperidine-1-carbonyl]phenyl]-5-[2,3-difluoro-4-[1-(2-methoxyethyl)-3-methyl-pyrazol-4-yl]phenyl]-1-methyl-imidazole-2-carboxamide; formic acid]: the IC90 is 680 nM.

Take `COCCn1ncc(-c2ccc(-c3cnc(C(=O)Nc4ccc(C(=O)N5CCN(C(=O)[C@H]6CC[N@+](CC(=O)O)(CC7CNC7)CC6)CC5)c(Cl)c4)n3C)c(C)c2F)c1C` [Example O4, cis 2-[1-(azetidin-3-ylmethyl)-4-[4-[2-chloro-4-[[5-[3-fluoro-4-[1-(2-methoxyethyl)-5-methyl-pyrazol-4-yl]-2-methyl-phenyl]-1-methyl-imidazole-2-carbonyl]amino]benzoyl]piperazine-1-carbonyl]piperidin-1-ium-1-yl]acetic acid formate]: the IC90 is 118 nM.

Consider `COc1cccc(CCn2cc(-c3ccc(-c4cnc(C(=O)Nc5ccc(C(=O)N6CCN(C(=O)C7CC[N+](C)(C)CC7)CC6)c(Cl)c5)n4C)c(F)c3F)c(C)n2)n1` [Example F54, N-[3-chloro-4-[4-(1,1-dimethylpiperidin-1-ium-4-carbonyl)piperazine-1-carbonyl]phenyl]-5-[2,3-difluoro-4-[1-[2-(6-methoxy-2-pyridyl)ethyl]-3-methyl-pyrazol-4-yl]phenyl]-1-methyl-imidazole-2-carboxamide; formate], for which the IC90 was found to be 590 nM.

As to `COCCn1ncc(-c2ccc(-c3cnc(C(=O)Nc4ccc(C(=O)N5CCN(C(=O)[C@@H]6C[C@@H](O)CN6)CC5)c(Cl)c4)n3C)c(F)c2F)c1C` [Example E9, N-[3-chloro-4-[4-[(2S,4R)-4-hydroxypyrrolidine-2-carbonyl]piperazine-1-carbonyl]phenyl]-5-[2,3-difluoro-4-[1-(2-methoxyethyl)-5-methyl-pyrazol-4-yl]phenyl]-1-methyl-imidazole-2-carboxamide; 2,2,2-trifluoroacetic acid], the IC90 is 65 nM.

For the compound `Cc1c(-c2ccc(-c3cnc(C(=O)Nc4ccc(C(=O)N5CCN(C(=O)C6CC[N+](C)(C)CC6)CC5)c(Cl)c4)n3C)c(F)c2F)cnn1CC(=O)Nc1cccnn1` [Example G25, N-[3-chloro-4-[4-(1,1-dimethylpiperidin-1-ium-4-carbonyl)piperazine-1-carbonyl]phenyl]-5-[2,3-difluoro-4-[5-methyl-1-[2-oxo-2-(pyridazin-3-ylamino)ethyl]pyrazol-4-yl]phenyl]-1-methyl-imidazole-2-carboxamide; formate], the concentration for an effect of 90% (IC90) amounted to 1000 nM.

With `Cn1c(-c2ccc(-c3cn[nH]c3)nc2F)cnc1C(=O)Nc1ccc(C(=O)N2CCN(C(=O)C3CCNCC3)CC2)c(Cl)c1` [Example E18, N-[3-chloro-4-[4-(piperidine-4-carbonyl)piperazine-1-carbonyl]phenyl]-5-[2-fluoro-6-(1H-pyrazol-4-yl)-3-pyridyl]-1-methyl-imidazole-2-carboxamide], the concentration for an effect of 90% (IC90) was 820 nM.

Staying with this test, now noted: Acinetobacter baumannii, ATCC17961, 16 h, read-out: ATCC 17961 IC90.
Turning to `Cc1c(-c2cnc(C(=O)Nc3ccc(C(=O)N4CCN(C(=O)CCC[N+](C)(CCCN)CC(=O)O)CC4)c(Cl)c3)n2C)ccc(-c2cnn(CCOC(F)F)c2C)c1F` (stereo not drawn) [Example N3, 3-aminopropyl-(carboxymethyl)-[4-[4-[2-chloro-4-[[5-[4-[1-[2-(difluoromethoxy)ethyl]-5-methyl-pyrazol-4-yl]-3-fluoro-2-methyl-phenyl]-1-methyl-imidazole-2-carbonyl]amino]benzoyl]piperazin-1-yl]-4-oxo-butyl]-methyl-ammonium; formate], the IC90 came out at 352 nM.

In the case of `COCCn1cc(-c2ccc(-c3cnc(C(=O)Nc4ccc(C(=O)N5CCN(C(=O)[C@H]6CC[N@+](CC(=O)O)(CC7CNC7)CC6)CC5)c(C)c4)n3C)c(F)c2F)c(C)n1` [Example O8, cis 2-[1-(azetidin-3-ylmethyl)-4-[4-[4-[[5-[2,3-difluoro-4-[1-(2-methoxyethyl)-3-methylpyrazol-4-yl]phenyl]-1-methylimidazole-2-carbonyl]amino]-2-methylbenzoyl]piperazine-1-carbonyl]piperidin-1-ium-1-yl]acetic acid formate], the IC90 came to 245 nM.

On to `COCCn1ncc(-c2ccc(-c3cnc(C(=O)Nc4ccc(C(=O)N[C@H]5[C@@H]6CN(C(=O)C7CC[N+](CC(=O)O)(CC8CNC8)CC7)C[C@@H]65)c(Cl)c4)n3C)c(F)c2F)c1C` (stereo partly drawn) [Example O2, 2-[1-(azetidin-3-ylmethyl)-4-[(1S,5R) 6-[[2-chloro-4-[[5-[2,3-difluoro-4-[1-(2-methoxyethyl)-5-methyl-pyrazol-4-yl]phenyl]-1-methyl-imidazole-2-carbonyl]amino]benzoyl]amino]-3-azabicyclo[3.1.0]hexane-3-carbonyl]piperidin-1-ium-1-yl]acetic acid formate], for which the IC90 was found to be 362 nM.
